Experiment [1] in a line: DPPH free radical scavenging assay. The experiment is classed as biochemical. The settings on record: for % DPPH scavenging mean ± SEM: n = 3; for IC50: read-out: IC50 DPPH scavenging.
A short description of experiment [2]: ABTS scavenging assay. It is filed as biochemical. The following applies: for % ABTS scavenging mean ± SEM: n = 3; for IC50: read-out: IC50 ABTS scavenging.
Experiment [3] concerns the target electric eel acetylcholinesterase (type-VI-S) (Electrophorus electricus, UniProt O42275). Briefly: AChE inhibition, Ellman's colorimetric method. The experiment is classed as biochemical. The following applies: for IC50: IC50 AChE inhibition, in vitro; for inhibition at 31.25 µM: read-out: % AChE inhibition mean ± SEM, 31.25 μM, n = 3; for inhibition at 62.5 µM: read-out: % AChE inhibition mean ± SEM, 62.5 μM, n = 3; for inhibition at 125 µM: read-out: % AChE inhibition mean ± SEM, 125 μM, n = 3; for inhibition at 250 µM: read-out: % AChE inhibition mean ± SEM, 250 μM, n = 3; for inhibition at 500 µM: read-out: % AChE inhibition mean ± SEM, 500 μM, n = 3; for inhibition at 1000 µM: read-out: % AChE inhibition mean ± SEM, 1000 μM, n = 3.

Experiment [4] deals with equine butyrylcholinesterase (Equus caballus, UniProt P81908). Nature of the experiment: BuChE inhibition, Ellman's colorimetric method. The experiment is classed as biochemical. The following applies: for IC50: IC50 BuChE inhibition, in vitro; for inhibition at 31.25 µM / inhibition at 62.5 µM / inhibition at 125 µM / inhibition at 250 µM / inhibition at 500 µM / inhibition at 1000 µM: read-out: % BuChE inhibition mean ± SEM.

Experiment [5] deals with scopolamine-induced memory impairment in mice. Nature of the experiment: Novel object recognition test. It is filed as in vivo.
The test system is the same in experiment [6]. Nature of the experiment: Y-maze spontaneous alternation, scopolamine-induced amnesia. The experiment is classed as in vivo.
The mark [7] stands for this setting: 1, 10 and 30 mg/kg plus scopolamine 1 mg/kg.
The mark [8] stands for this setting: 30 mg/kg plus scopolamine 1 mg/kg.
[9] abbreviates: 10 and 30 mg/kg plus scopolamine 1 mg/kg.

“Also recorded” adds a separate entry of the source.

Sequence of electric eel acetylcholinesterase (type-VI-S) (O42275 24-633): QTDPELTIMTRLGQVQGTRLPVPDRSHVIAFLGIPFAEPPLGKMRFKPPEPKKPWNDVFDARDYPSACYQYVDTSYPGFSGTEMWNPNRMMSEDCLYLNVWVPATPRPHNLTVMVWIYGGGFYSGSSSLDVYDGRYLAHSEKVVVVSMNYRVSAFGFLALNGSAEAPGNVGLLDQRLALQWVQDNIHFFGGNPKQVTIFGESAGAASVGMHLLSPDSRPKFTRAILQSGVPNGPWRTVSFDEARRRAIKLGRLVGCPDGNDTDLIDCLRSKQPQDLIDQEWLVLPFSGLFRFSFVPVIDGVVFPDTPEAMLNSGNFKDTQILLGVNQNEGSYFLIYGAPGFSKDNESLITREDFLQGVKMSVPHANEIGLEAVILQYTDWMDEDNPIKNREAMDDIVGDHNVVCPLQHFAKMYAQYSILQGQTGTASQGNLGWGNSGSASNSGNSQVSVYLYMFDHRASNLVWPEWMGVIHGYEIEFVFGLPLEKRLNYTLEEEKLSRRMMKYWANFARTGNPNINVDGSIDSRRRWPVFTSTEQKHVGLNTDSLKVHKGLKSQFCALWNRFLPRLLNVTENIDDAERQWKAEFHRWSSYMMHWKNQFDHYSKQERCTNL
Sequence of equine butyrylcholinesterase (P81908 whole entry): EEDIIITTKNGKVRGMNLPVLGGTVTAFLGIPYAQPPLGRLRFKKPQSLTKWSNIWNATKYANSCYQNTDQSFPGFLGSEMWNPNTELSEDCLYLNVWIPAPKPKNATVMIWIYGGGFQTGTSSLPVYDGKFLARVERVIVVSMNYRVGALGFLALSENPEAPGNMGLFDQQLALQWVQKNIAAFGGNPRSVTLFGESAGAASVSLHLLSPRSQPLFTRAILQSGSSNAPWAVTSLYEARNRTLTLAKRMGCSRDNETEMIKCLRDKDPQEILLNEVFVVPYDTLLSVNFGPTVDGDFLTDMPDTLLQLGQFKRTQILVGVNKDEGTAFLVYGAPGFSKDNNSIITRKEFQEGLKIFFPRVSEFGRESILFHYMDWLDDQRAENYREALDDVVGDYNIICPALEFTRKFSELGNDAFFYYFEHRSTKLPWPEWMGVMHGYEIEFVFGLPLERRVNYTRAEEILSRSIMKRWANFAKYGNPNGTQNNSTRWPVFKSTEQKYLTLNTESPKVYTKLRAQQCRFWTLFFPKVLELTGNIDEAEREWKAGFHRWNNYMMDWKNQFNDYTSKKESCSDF

For the compound `O=C1c2ccccc2C(=O)N1c1ccc(Br)cc1` [compound 2, 2-(4-bromophenyl)isoindoline-1,3-dione], the “% DPPH scavenging mean ± SEM” value in experiment [1] (31.25 μM) came out at 15.21 ± 0.19%; in experiment [1] (125 μM), 40.16 ± 0.14%; in experiment [1] (250 μM) it was 47.85 ± 0.17%; in experiment [1] (500 μM) it was 56.65 ± 0.30%; in experiment [1] (1000 μM), 69.87 ± 0.23%. Moreover, the IC50 in experiment [1] worked out at 340 µM; in experiment [2] it was 350 µM; in experiment [3] it was 140 µM; in experiment [4], 50 µM. For the same compound, the “% ABTS scavenging mean ± SEM” value in experiment [2] (31.25 μM) is reported as 10.47 ± 0.25%; in experiment [2] (62.5 μM), 22.12 ± 0.32%; in experiment [2] (125 μM), 34.11 ± 1.21%; in experiment [2] (250 μM) it was 41.72 ± 0.81%; in experiment [2] (500 μM), 57.76 ± 0.75%; in experiment [2] (1000 μM) it was 62.57 ± 0.50%. Besides, the inhibition at 31.25 µM in experiment [3] was determined as 38.36 ± 0.22%; in experiment [4], 45.45 ± 0.22%. Moreover, the inhibition at 62.5 µM in experiment [3] was determined as 41.35 ± 0.13%; in experiment [4], 51.34 ± 0.03%. Besides, the inhibition at 125 µM in experiment [3] was 47.14 ± 0.09%; in experiment [4], 56.28 ± 0.03%. The results for the inhibition at 250 µM in experiment [3] and in experiment [4] were 54.33 ± 0.22% and 64.36 ± 0.03%, respectively. Moreover, the results for the inhibition at 500 µM in experiment [3] and in experiment [4] were 61.1 ± 1.95% and 71.25 ± 0.12%, respectively. Also, the inhibition at 1000 µM in experiment [3] came to 66.7 ± 5.14%; in experiment [4] it was 78.2 ± 0.07%. For the same compound, the “NORT short-term memory: exploration of novel vs familiar object in test phase” value in experiment [5] (setting [7]) was “did not exert a significant effect”.
With `Cc1ccc(N2C(=O)c3ccccc3C2=O)c(C)c1` [compound 3, 2-(2,4-dimethylphenyl)isoindoline-1,3-dione], the “% DPPH scavenging mean ± SEM” value in experiment [1] (31.25 μM) is 25.21 ± 0.15%; in experiment [1] (125 μM), 40.16 ± 0.15%; in experiment [1] (250 μM) it was 55.85 ± 0.18%; in experiment [1] (500 μM) it was 77.65 ± 0.31%; in experiment [1] (1000 μM), 80.87 ± 0.25%. Also, the IC50 in experiment [1] came out at 150 µM; in experiment [2], 220 µM; in experiment [3], 18 µM; in experiment [4], 11 µM. Besides, the “% ABTS scavenging mean ± SEM” value in experiment [2] (31.25 μM) is 18.47 ± 0.83%; in experiment [2] (62.5 μM), 35.22 ± 0.50%; in experiment [2] (125 μM) it was 46.11 ± 1.21%; in experiment [2] (250 μM), 54.72 ± 0.80%; in experiment [2] (500 μM) it was 68.76 ± 0.72%; in experiment [2] (1000 μM), 73.57 ± 0.41%. In experiment [3] (1000 μM, n = 3), the “% AChE inhibition mean ± SEM” value is recorded as 95.24 ± 0.12%. The inhibition at 31.25 µM in experiment [3] stood at 65.2 ± 0.75%; in experiment [4], 59.49 ± 0.11%. The values for the inhibition at 62.5 µM in experiment [3] and in experiment [4] were 52.5 ± 0.92% and 63.41 ± 0.14%, respectively. For the same compound, the values for the inhibition at 125 µM in experiment [3] and in experiment [4] were 77.32 ± 0.21% and 69.37 ± 0.02%, respectively. For the same compound, the inhibition at 250 µM in experiment [3] stood at 84.18 ± 0.1%; in experiment [4], 75.65 ± 0.03%. Besides, the inhibition at 500 µM in experiment [3] came out at 91.47 ± 0.26%; in experiment [4], 82.4 ± 0.06%. In addition, the values for the inhibition at 1000 µM in experiment [3] and in experiment [4] were 95.7 ± 0.12% and 87.29 ± 0.03%, respectively. Moreover, in experiment [5] (setting [8]), the “NORT short-term memory: % discrimination index vs scopolamine alone” value is given as “significantly higher”. Besides, in experiment [5] (setting [9]), the “NORT long-term memory: % discrimination index” value is reported as “significantly higher”.
As to `O=C1c2ccccc2C(=O)N1c1ccc(C(F)(F)F)cc1` [compound 1, 2-(4-(trifluoromethyl)phenyl)isoindoline-1,3-dione], the “% DPPH scavenging mean ± SEM” value in experiment [1] (31.25 μM) worked out at 30.21 ± 0.17%; in experiment [1] (125 μM) it was 52.16 ± 0.15%; in experiment [1] (250 μM) it was 67.85 ± 0.18%; in experiment [1] (500 μM), 76.65 ± 0.30%; in experiment [1] (1000 μM) it was 85.87 ± 0.23%. Further, the IC50 worked out at 105 µM in experiment [1], 205 µM in experiment [2], 10 µM in experiment [3] and 80 µM in experiment [4]. The “% ABTS scavenging mean ± SEM” value in experiment [2] (31.25 μM) was found to be 11.47 ± 0.54%; in experiment [2] (62.5 μM), 28.21 ± 0.32%; in experiment [2] (125 μM), 42.10 ± 1.11%; in experiment [2] (250 μM), 49.72 ± 0.72%; in experiment [2] (500 μM), 66.65 ± 0.61%; in experiment [2] (1000 μM) it was 70.55 ± 0.32%. Besides, the inhibition at 31.25 µM in experiment [3] was 55.68 ± 0.52%; in experiment [4], 41.39 ± 0.07%. For the same compound, the values for the inhibition at 62.5 µM in experiment [3] and in experiment [4] were 61.77 ± 0.49% and 47.29 ± 0.12%, respectively. Further, the inhibition at 125 µM in experiment [3] amounted to 77.4 ± 0.9%; in experiment [4], 54.29 ± 0.19%. Moreover, the inhibition at 250 µM turned out to be 84.4 ± 1.39% in experiment [3] and 61.76 ± 0.49% in experiment [4]. For the same compound, the inhibition at 500 µM in experiment [3] was 81.44 ± 0.29%; in experiment [4] it was 67.4 ± 0.89%. The inhibition at 1000 µM was 98.51 ± 0.65% in experiment [3] and 75.4 ± 1.39% in experiment [4]. Besides, in experiment [6] (10 and 30 mg/kg plus scopolamine), the “Y-maze spontaneous alternation vs scopolamine group” value is “significant increase”. Moreover, the “NORT long-term memory: % discrimination index” value in experiment [5] (setting [8]) and in experiment [5] (setting [9]) was “significantly higher” each time. The “NORT short-term memory: exploration of novel vs familiar object in test phase” value in experiment [5] (setting [7]) is “statistically not significant”. For the same compound, the “NORT short-term memory: % discrimination index vs scopolamine alone” value in experiment [5] (setting [9]) is “significantly greater; also recorded: significantly higher”.
For the compound `O=C1O[C@H]([C@@H](O)CO)C(O)=C1O` [ascorbic acid, reference compound], the “% DPPH scavenging mean ± SEM” value is 29.20 ± 1.03% in experiment [1] (31.25 μM); 47.65 ± 0.2a % in experiment [1] (62.5 μM); 52.56 ± 0.69% in experiment [1] (125 μM); 65.19 ± 0.29% in experiment [1] (250 μM); 74.44 ± 0.48% in experiment [1] (500 μM); 85.08 ± 0.32% in experiment [1] (1000 μM). Further, the IC50 is 61 µM in experiment [1] and 125 µM in experiment [2]. Further, the “% ABTS scavenging mean ± SEM” value in experiment [2] (31.25 μM) is 35.27 ± 0.67%; in experiment [2] (62.5 μM), 44.58 ± 1.11%; in experiment [2] (125 μM) it was 51.89 ± 0.59%; in experiment [2] (250 μM), 63.11 ± 1.22%; in experiment [2] (500 μM), 73.22 ± 0.21%; in experiment [2] (1000 μM), 82.14 ± 0.19%.
For the compound `COc1cc2c(cc1OC)C(=O)C(CC1CCN(Cc3ccccc3)CC1)C2` (stereo not shown) [donepezil, reference compound], in experiment [4], the inhibition at 31.25 µM turned out to be 69.31 ± 0.06%, the inhibition at 62.5 µM was found to be 74.42 ± 0.06%, the inhibition at 125 µM was 78.39 ± 0.06% and the inhibition at 250 µM came out at 82.49 ± 0.08%. In experiment [4], the inhibition at 500 µM worked out at 86.42 ± 0.11% and the inhibition at 1000 µM came to 91.29 ± 0.06%. Besides, the “Y-maze spontaneous alteration (% alteration)” value in experiment [6] (donepezil 2 mg/kg plus scopolamine, n = 8) was found to be 83.83 ± 2.64. Further, in experiment [5] (donepezil 2 mg/kg plus scopolamine 1 mg/kg), the “NORT short-term memory: exploration of novel vs familiar object in test phase” value is recorded as “statistically not significant”.

Broadly, the IC50 is the concentration that inhibits the measured activity by half. As usually defined, the inhibition is the share of the control response that was lost under treatment.
